Consider seven compounds from patent US20250206713A1, “2-[(2-OXO-4-PHENYL-2H-CHROMEN-7-YL)OXY] PROPANAMIDO DERIVATIVES” (LUNELLA BIOTECH, INC., priority 2022, published 2025).

In general, IC50 refers to the concentration needed to halve the response being measured. As usually defined, the inhibition is the drop in the measured response relative to a control, in per cent.

For series [1], the system named is BJ1-hTERT cells. Put plainly: SRB assay (cell viability) on BJ1-hTERT cells. The following applies: 72 hours. For orientation: The SRB assay estimates cell density from bound dye.
Method: (§3) The human breast adenocarcinoma cell line MCF-7 was from the American Type Culture Collection (ATCC). hTERT-BJ1 cells were from Clontech, Inc. MCF-7 and hTERT-BJ 1 cells were grown in DMEM supplemented with 10% fetal bovine serum, GlutaMAX and 1% penicillin-streptomycin and incubated at 37 C in a humidified 5% C02 incubator. The medium was changed 2-3 times/week.
(§4) The inventors initially used the sulphorhodamine (SRB) assay, which is based on the measurement of cellular protein content. After treatment for 72 hours in 96-well plates, cells were fixed with 10% trichloroacetic acid (TCA) for 1 hour in the cold room, and were dried overnight at room temperature. Then, cells were incubated with SRB for 15 min, washed twice with 1% acetic acid, and air dried for at least 1 hour. Finally, the protein-bound dye was dissolved in a 10 mM Tris, pH 8.8 solution and read using the plate reader at 540-nm. […] Prominent cytotoxicity was defined as fewer than 30% of cells still on the plate.
For series [2], the system named is MCF-7 cells. Put plainly: 3D anchorage independent growth assay (mammosphere formation assay). It is filed as cell-based, human. Conditions: for IC50: MCF-7 mammosphere formation, approximate, read from figure, read-out: IC50 against MCF-7 cells (mammosphere formation); for inhibition of MCF-7 cells across tested concentrations (mammosphere formation): in words, concentration range as given in the value; for potency relative to Compound [I], MCF-7 mammosphere formation: times / fold versus Compound [I]. Here is the method: The medium was changed 2-3 times/week.
3D Anchorage Independent Growth Assay: This assay is also referred to as the mammosphere formation assay. A single-cell suspension was prepared using enzymatic, and manual disaggregation (25-g needle). Then, cells were plated at a density of 500 cells/cm2 in mammosphere medium (DMEM-F12+1X B-27 Plus Supplement+20 ng/ml EGF+Pen/Strep) under non-adherent conditions, in culture dishes pre-coated with (2-hydroxyethylmethacrylate) (poly-HEMA, Sigma Aldrich Inc.), called “mammosphere plates.” Cells were grown for 5 days and maintained in a humidified incubator at 37° C. After 5 days of culture, 3D-mammospheres >50 μm were counted using an eye piece (“graticule”), and the percentage of cells plated which formed spheres was calculated and is referred to as percent mammosphere formation, and was normalized to one (1=100% MFE). 3D mammosphere formation efficiency (MFE) was analyzed in both the ATP-low and ATP-high sub-populations of cells. All 3D mammosphere experiments were performed in triplicate, at least 3 times independently.

For series [3], the system named is MCF-7 cells. Put plainly: SRB assay (cell viability) on MCF-7 cells. The following applies: for concentration at which cytotoxicity towards MCF-7 cells starts (SRB assay): 72 hours; for cytotoxicity towards MCF-7 cells (SRB assay): in words.
Method: as §3, §4
The subject of series [4] is BJ1-hTERT cells.
Method: as §3, §4
Series [5] relates to MCF-7 cells.
Method: as §3, §4
The subject of the next series is chick embryo. Put plainly: CAM assay, chick embryo toxicity. It is filed as in vivo, chicken. The following applies: chick embryos; for Alive / Dead: of 18 total. Here is the method:
(§1) Further evaluation of both efficacy and toxicity was performed on human breast tumors initiated from the MDA-MB-231 cell line in chicken embryos using the chick chorioallantoic membrane assay (“CAM Assay”) available from Inovotion (Cambridge, Massachusetts). […] An inoculum of 1×10^6 MDA-MB-231 cells was added onto the CAM of each egg (day E9) and then eggs were randomized into groups. On day E10, tumors were detectable and they were then treated daily for 8 days with vehicle alone (1% DMSO in PBS), or a compound of the present approach. After 8 days of drug administration, on day E18 all tumors were weighed, and the lower CAM was collected to evaluate the number of metastatic cells, as analyzed by qPCR with specific primers for Human Alu sequences.

Series [6] deals with human breast tumors initiated from the MDA-MB-231 cell line in chicken embryos. Put plainly: CAM assay, tumor growth. The following applies: MDA-MB-231 tumors, treated daily for 8 days, different concentrations. It is filed as in vivo. The method, then: as §1
Series [7] concerns MDA-MB-231 cancer cell metastasis. Put plainly: CAM assay, metastatic invasion (qPCR for Human Alu sequences in lower CAM). It is filed as in vivo. Conditions: MDA-MB-231, lower CAM, treated daily for 8 days, different concentrations. The method, then:
as §1
(In general: Real-time PCR tracks product formation cycle by cycle.)

Series [8] has as its system adherent MCF7 cells. Put plainly: Glycolytic function analysis (ECAR). It is filed as cell-based, human. The following applies: 2.5 μM, versus control. Here is the method:
(§2) FIGS. 11A-D show mitochondrial respiration, basal respiration, maximal respiration, and ATP production results for metabolic flux analysis of adherent MCF7 cells were treated with Compound [III] at 2.5 μM. After treatment, the mitochondrial oxygen consumption rate (OCR) was measured using the Seahorse XFe96 analyzer. Data is expressed as percentage of OCR versus control.
FIGS. 12A-D show the results of glycolytic function analysis for treatment with Compound [III] at 2.5 μM. Glycolytic function, basal glycolysis, induced glycolysis, and compensatory glycolysis, respectively. […] All data was normalized for cell number. Statistical analysis was conducted using one-way ANOVA.

The test system of series [9] is adherent MCF7 cells. Put plainly: Metabolic flux analysis, mitochondrial oxygen consumption rate (Seahorse XFe96). It is filed as cell-based, human. Conditions: 2.5 μM, versus vehicle-alone control. Here is the method:
as §2

“Also recorded” adds a separate entry of the source. Where two headings read alike, the source gives them in different places.

For `CCCCCCCCCCCCCC(=O)Nc1ccc(-c2cc(=O)oc3cc(O[C@H](C)C(=O)N4CCC[C@H](C(=O)O)C4)ccc23)c(Cl)c1` [Compound [II], (3S)-1-[(2R)-2-[4-[2-Chloro-4-(tetradecanoylamino)phenyl]-2-oxo-chromen-7-yl]oxypropanoyl]piperidine-3-carboxylic acid], the “concentration at which cytotoxicity towards BJ1-hTERT cells starts (SRB assay)” value in the series with BJ1-hTERT cells [1] is not below 50 µM. For the same compound, in the series on MCF-7 cells [2] (Homo sapiens, MCF7), the IC50 is approximately 5 µM and the inhibition at 100 µM is 100%. For the same compound, the inhibition at 10 µM in the series with MCF-7 cells [2] (Homo sapiens, MCF7, at 10 μM) is more than 50%. In the series on MCF-7 cells [2], the “inhibition of MCF-7 cells across tested concentrations (mammosphere formation)” value is recorded as “dose-dependent inhibition of MCF-7 cells at all tested concentrations, ranging from 0.1 μM to 100 μM” and the “potency relative to Compound [I], MCF-7 mammosphere formation” value is given as 10. In addition, in the series with MCF-7 cells [3], the “concentration at which cytotoxicity towards MCF-7 cells starts (SRB assay)” value was not below 50 µM.
In the case of `CCCCCCCCCCCCCC(=O)Nc1cc(F)ccc1-c1cc(=O)oc2cc(O[C@H](C)C(=O)N(CC)C(=O)NCCCN(C)C)ccc12` [Compound [IV], N-[2-[7-[(1R)-2-[3-(Dimethylamino)propylcarbamoyl-ethyl-amino]-1-methyl-2-oxo-ethoxy]-2-oxo-chromen-4-yl]-5-fluoro-phenyl]tetradecanamide], in the series with MCF-7 cells [2] (Homo sapiens, MCF7, at 2.5 μM), the inhibition at 2.5 µM is more than 50%. In addition, the “inhibition of MCF-7 cells (mammosphere formation)” value in the series on MCF-7 cells [2] (at 10 μM) was “near complete inhibition”. Also, the “inhibition of MCF-7 cells across tested concentrations (mammosphere formation)” value in the series on MCF-7 cells [2] is recorded as “dose-dependent inhibition of MCF-7 cells at all tested concentrations, ranging from 1 μM to 10 μM”. In the series with MCF-7 cells [3], the “concentration at which cytotoxicity towards MCF-7 cells starts (SRB assay)” value is not below 5 µM.
For the compound `C[C@@H](Oc1ccc2c(-c3ccc(F)cc3Cl)cc(=O)oc2c1)C(=O)N1CCC[C@H](C(=O)O)C1` [Compound [I], 3-piperidinecarboxylic acid, 1-[(2R)-2-[[4-(2-chloro-4-fluorophenyl)-2-oxo-2H-1-benzopyran-7-yl]oxy]-1-oxopropyl]-, (3S)-, reference compound], the “cytotoxicity towards BJ1-hTERT cells (SRB assay)” value with BJ1-hTERT cells [4] is given as “did not exhibit cytotoxicity”. The “cytotoxicity towards MCF-7 cells (SRB assay)” value in the series with MCF-7 cells [5] is listed as “did not exhibit cytotoxicity”. Moreover, in the series with MCF-7 cells [2] (Homo sapiens, MCF7), the IC50 is approximately 50 µM and the inhibition at 100 µM is more than 50%. Besides, in the series with MCF-7 cells [2] (at 5 μM), the “inhibition of MCF-7 cells (mammosphere formation)” value is reported as “showed inhibition”.
As to `CCCCCCCCCCCCCC(=O)Nc1cc(F)ccc1-c1cc(=O)oc2cc(O[C@H](C)C(=O)O)ccc12` [Compound [VII], (2R)-2-[4-[4-Fluoro-2-(tetradecanoylamino)phenyl]-2-oxo-chromen-7-yl]oxypropanoic acid], in the series on MCF-7 cells [2] (Homo sapiens, MCF7, at 1 μM), the inhibition at 1 µM is more than 50%. Further, testing at 100 µM with MCF-7 cells [2] (Homo sapiens, MCF7) gave an inhibition of 100%. Moreover, the “inhibition of MCF-7 cells across tested concentrations (mammosphere formation)” value in the series with MCF-7 cells [2] was “inhibitory activity can be seen at all tested concentrations, from 1 μM to 100 μM”. The “cytotoxicity towards MCF-7 cells (SRB assay)” value with MCF-7 cells [3] is given as “little toxicity across the tested concentrations below 100 μM”.
In the series on MCF-7 cells [2] (Homo sapiens, MCF7, at 10 μM), `CCCCCCCCCCCCCC(=O)Nc1ccc(-c2cc(=O)oc3cc(O[C@H](C)C(=O)O)ccc23)c(Cl)c1` [Compound [VI], (2R)-2-[4-[2-chloro-4-(tetradecanoylamino)phenyl]-2-oxo-chromen-7-yl]oxypropanoic acid] had an inhibition at 10 µM of more than 50%. For the same compound, the “inhibition of MCF-7 cells across tested concentrations (mammosphere formation)” value with MCF-7 cells [2] is given as “inhibitory activity can be seen at all tested concentrations, from 1 μM to 100 μM”. Besides, in the series on MCF-7 cells [3], the “cytotoxicity towards MCF-7 cells (SRB assay)” value was “little toxicity across the tested concentrations”.
Consider `CCCCCCCCCCCCCC(=O)Nc1ccc(-c2cc(=O)oc3cc(O[C@H](C)C(=O)N(CC)CC(=O)NCCN(C)C)ccc23)c(Cl)c1` [Compound [V], N-[3-Chloro-4-[7-[(1R)-2-[[2-[2-(dimethylamino)ethylamino]-2-oxo-ethyl]-ethyl-amino]-1-methyl-2-oxo-ethoxy]-2-oxo-chromen-4-yl]phenyl]tetradecanamide], for which the “concentration at which cytotoxicity towards BJ1-hTERT cells starts (SRB assay)” value in the series with BJ1-hTERT cells [1] was not below 5 µM. In the series on MCF-7 cells [2] (Homo sapiens, MCF7, at 0.5 μM), this compound returned an inhibition at 0.5 µM of more than 50%. At 5 µM the inhibition with MCF-7 cells [2] (Homo sapiens, MCF7, at 5 μM) was 100%. Moreover, the “inhibition of MCF-7 cells across tested concentrations (mammosphere formation)” value in the series with MCF-7 cells [2] was “effectively inhibited MCF-7 cells at all tested concentrations, ranging from 0.5 μM to 10 μM”. In the series with MCF-7 cells [3], the “concentration at which cytotoxicity towards MCF-7 cells starts (SRB assay)” value was not below 5 µM.
For the compound “tert-Butyl-N-[3-chloro-4-[7-[(1R)-2-[[2-[2-(dimethylamino)ethylamino]-2-oxo-ethyl]-ethyl-amino]-1-methyl-2-oxo-ethoxy]-2-oxo-chromen-4-yl]phenyl]carbamate [Compound [III]]”, in the series on chick embryo (100 μM), the “% Alive” value is on record as 83.33%, the “% Dead” value came out at 16.67%, the Alive came to 15 and the Dead is reported as 3. For the same compound, in the series with chick embryo (250 μM), the “% Alive” value turned out to be 100%, the “% Dead” value is reported as 0%, the Alive came to 18 and the Dead was 0. Besides, in the series with chick embryo (500 μM), the “% Alive” value is 94.44%, the “% Dead” value is given as 5.56%, the Alive amounted to 17 and the Dead turned out to be 1. In addition, in the series with chick embryo (in words), the “toxicity assessment (CAM assay)” value was “non-toxic towards normal cells”. Further, the “concentration at which cytotoxicity towards BJ1-hTERT cells starts (SRB assay)” value with BJ1-hTERT cells [1] was not below 10 µM. In addition, in the series with MCF-7 cells [2], the “inhibition of MCF-7 cells across tested concentrations (mammosphere formation)” value is “dose-dependent inhibition of MCF-7 cells at all tested concentrations, ranging from 1 μM to 10 μM” and the “potency relative to Compound [I], MCF-7 mammosphere formation” value was “twenty-fold improvement”. The “tumor growth (CAM assay)” value in series [6] is listed as “dose-dependent reduction in tumor growth”. In addition, in series [7], the “metastatic invasion (CAM assay)” value is listed as “dose-dependent reduction in metastasis”. For the same compound, in the series on adherent MCF7 cells [8], the “ECAR levels (glycolysis)” value is “largely comparable between the control and the demonstrative compound; also recorded: little or no effects on glycolysis”. In the series with adherent MCF7 cells [9], the ATP production levels entry is recorded as “significantly inhibited”, the “basal OCR (basal respiration)” value was “significantly inhibited” and the “maximal OCR (maximal respiration)” value is “significantly inhibited”. Further, in the series on MCF-7 cells [3], the “concentration at which cytotoxicity towards MCF-7 cells starts (SRB assay)” value was not below 10 µM.
